Tested on: CCRF-CEM cancer cells - leukemia
Test: Fluorometric Microculture Cytotoxicity Assay (FMCA), CCRF-CEM
Format: cell-based
Conditions: Homo sapiens, 72 h incubation
Text: The Fluorometric Microculture Cytotoxicity Assay, FMCA (Larsson, R., et al.; Anticancer Res, 1989, 9, 1111-1119), is a three day non-clonogenic microplate-based cell viability assay used for measurement of the cytotoxic and/or cytostatic effect of compounds in vitro (Lindhagen, E. et al.; Nat. Protoc., 2008, 3, 1364-1369). FMCA represents a valuable method to measure cytotoxicity in a number of cell types, both cell lines and primary cells from patients (Larsson, R., et al.; Int. J. Cancer, 1992, 50, 177-185; Fridborg, H., et al.; Eur. J. Cancer, 1999. 35, 424-432; Dhar, S., et al.; Br. J. Cancer, 1996, 74, 888-896).
FMCA is based on the principle that fluorescein diacetate (FDA) is converted to the fluorescent probe fluorescein by esterases in the plasma membranes of living cells. For experiments, 96 or 384-well microplates are prepared with compounds and stored at −70° C. until use. Cells are then seeded into the drug-prepared plates and placed in an incubator for 72 h. On the last day of incubation, the plates are washed and a buffer containing FDA is added and incubated with the cells for 45 minutes. Finally the fluorescence per well is measured in a fluorometer and a Survival Index % (SI) for each compound-treated well is calculated with the equation: Compound-treated cells minus blank divided by control cells minus blank. A high SI-value indicates a large percentage of living cells and vice versa.
In subsequent experiments, compounds were tested, along with a number of approved cancer drugs (dasatinib, pazopanib, sorafenib, and sunitinib) as described above. Initially, the acute lymphoblastic leukemia cell line CCRF-CEM was used throughout. In the assay plates, medium was added to six empty wells (blank wells) and wells were filled with PBS and cell suspension and served as control wells. SI-values were then calculated for each compound-treated well as described above. All experiments were conducted twice and a new batch of plates was prepared for each experiment.
For dose-response experiments, 384-well plates were prepared as follows:
Compounds of the invention as well comparative kinase inhibitors sorafenib sunitinib, dasatinib, pazopanib and a reference compound disclosed in WO 2009/071535 (compound #107) were diluted with PBS to a concentration ten-times higher than the desired starting concentration. Then, a Biomek 2000 liquid handling system was employed to serially dilute the compounds in a deep-well 384-well plate. From this plate, assay plates containing 5 μl compound per well were prepared with the Biomek 2000. Certain compounds precipitated when diluted with PBS, and these compounds were therefore prepared in a 96-well plate manually as described above using culture medium RPMI 1640 instead of PBS.
The compounds were also tested at five concentrations, with five times serial dilution on the following cell types: CCRF-CEM, hTERT-RPE1 (normal retinal epithelial cells), hRPTEpiC (normal renal cells), and peripheral blood mononuclear cells (PBMC). Each experiment was performed three times, except for PBMC and hRPTEpiC, which were performed twice. SI-values were calculated, graphs were plotted using GraphPadPrism 5.0 (GraphPad Software Inc. La Jolla, Calif.) and IC50-values for each cell type and compound were determined from the curves.

SMILES: COc1cccc2c(CCNc3nccc(Nc4ccc5[nH]c(C)cc5c4)n3)c[nH]c12 [Example 12, N^2-[2-(7-methoxy-1H-indol-3-yl)ethyl]-N^4-(2-methyl-1H-indol-5-yl)pyrimidine-2,4-diamine]
- EC50: 0.13 µM

SMILES: Cc1cc(Nc2ccc3[nH]c(C)cc3c2)nc(NCCc2c[nH]c3ccccc23)n1 [Example 26, N^2-[2-(1H-indol-3-yl)ethyl]-6-methyl-N^4-(2-methyl-1H-indol-5-yl)pyrimidine-2,4-diamine]
- EC50: 0.65 µM

SMILES: Cc1cc2cc(Nc3ccnc(NCCc4c[nH]c5ccc(OC(C)C)cc45)n3)ccc2[nH]1 [Example 49, N^2-[2-(5-isopropoxy-1H-indol-3-yl)ethyl]-N^4-(2-methyl-1H-indol-5-yl)pyrimidine-2,4-diamine]
- EC50: 0.1 µM

SMILES: CNC(=O)c1cc(Oc2ccc(NC(=O)Nc3ccc(Cl)c(C(F)(F)F)c3)cc2)ccn1 [Ref. 1, sorafenib, reference compound]
- EC50: 8.3 µM

SMILES: COc1ccc2[nH]cc(CCNc3nccc(Nc4ccc5[nH]ccc5c4)n3)c2c1 [Example 2, N^4-(1H-indol-5-yl)-N^2-[2-(5-methoxy-1H-indol-3-yl)ethyl]pyrimidine-2,4-diamine]
- EC50: 0.14 µM

SMILES: COC(=O)c1cc2cc(Nc3ccnc(NCCc4c[nH]c5ccc(OC)cc45)n3)ccc2[nH]1 [Example 16, methyl 5-{2-[2-(5-methoxy-1H-indol-3-yl)ethylamino]pyrimidin-4-ylamino}-1H-indole-2-carboxylate]
- EC50: 0.94 µM

SMILES: Cc1ccc(Nc2nccc(N(C)c3ccc4c(C)n(C)nc4c3)n2)cc1S(N)(=O)=O [Ref. 4, pazopanib, reference compound]
- EC50: 25.9 µM

SMILES: COc1ccc2[nH]cc(CCNc3nccc(Nc4cccc5[nH]c(C)nc45)n3)c2c1 [Example 82, N^2-[2-(5-methoxy-1H-indol-3-yl)ethyl]-N^4-(2-methyl-1H-benzimidazol-4-yl)pyrimidine-2,4-diamine]
- EC50: < 1 µM

SMILES: COc1ccc2[nH]c(C)c(CCNc3nc(C)cc(Nc4ccc5[nH]c(C)cc5c4)n3)c2c1 [Example 56, N^2-[2-(5-methoxy-2-methyl-1H-indol-3-yl)ethyl]-6-methyl-N^4-(2-methyl-1H-indol-5-yl)pyrimidine-2,4-diamine]
- EC50: 0.13 µM

SMILES: COc1ccc2[nH]cc(CCNc3nccc(N(C)c4ccc5[nH]c(C)cc5c4)n3)c2c1 [Example 61, N^2-[2-(5-methoxy-1H-indol-3-yl)ethyl]-N^4-methyl-N^4-(2-methyl-1H-indol-5-yl)pyrimidine-2,4-diamine]
- EC50: 1 to 10 µM

SMILES: COc1ccc2[nH]cc(CCNc3nccc(Nc4cccc5[nH]c(C)cc45)n3)c2c1 [Example 77, N^2-[2-(5-methoxy-1H-indol-3-yl)ethyl]-N^4-(2-methyl-1H-indol-4-yl)pyrimidine-2,4-diamine]
- EC50: < 0.1 µM

SMILES: COc1ccc2[nH]cc(CCNc3nc(Nc4cccc5c4ccn5C)cc(C(N)=O)n3)c2c1 [Example 87, 2-[2-(5-methoxy-1H-indol-3-yl)ethylamino]-6-[(1-methylindol-4-yl)amino]pyrimidine-4-carboxamide]
- EC50: < 0.1 µM

SMILES: COc1cccc2[nH]cc(CCNc3nccc(Nc4ccc5[nH]c(C)cc5c4)n3)c12 [Example 47, N^2-[2-(4-methoxy-1H-indol-3-yl)ethyl]-N^4-(2-methyl-1H-indol-5-yl)pyrimidine-2,4-diamine]
- EC50: 0.33 µM

SMILES: Cc1cc2cc(Nc3ccnc(NCCc4c[nH]c5ccc(OC(F)(F)F)cc45)n3)ccc2[nH]1 [Example 7, N^4-(2-methyl-1H-indol-5-yl)-N^2-{2-[5-(trifluoromethoxy)-1H-indol-3-yl]ethyl}pyrimidine-2,4-diamine]
- EC50: 0.14 µM

SMILES: COc1ccc2[nH]cc(CCNc3ccnc(Nc4cccc5c4ccn5C)n3)c2c1 [Example 84, N^4-[2-(5-methoxy-1H-indol-3-yl)ethyl]-N^2-(1-methylindol-4-yl)pyrimidine-2,4-diamine]
- EC50: < 0.1 µM

SMILES: Cc1nc(Nc2ncc(C(=O)Nc3c(C)cccc3Cl)s2)cc(N2CCN(CCO)CC2)n1 [Ref. 3, dasatinib, reference compound]
- EC50: 9.7 µM

SMILES: CCOc1ccc2[nH]cc(CCNc3nccc(Nc4ccc5ccn(C)c5c4)n3)c2c1 [Example 76, N^2-[2-(5-ethoxy-1H-indol-3-yl)ethyl]-N^4-(1-methylindol-6-yl)pyrimidine-2,4-diamine]
- EC50: < 1 µM

SMILES: Cc1cc2cc(Nc3ccnc(NCCc4c[nH]c5ccc(F)cc45)n3)ccc2[nH]1 [Example 10, N^2-[2-(5-fluoro-1H-indol-3-yl)ethyl]-N^4-(2-methyl-1H-indol-5-yl)pyrimidine-2,4-diamine]
- EC50: 0.28 µM

SMILES: COc1ccc2[nH]cc(CCNc3nccc(Nc4ccc5c(c4)nc(C)n5C)n3)c2c1 [Example 53, N^4-(1,2-dimethyl-1H-benzo[d]imidazol-5-yl)-N^2-[2-(5-methoxy-1H-indol-3-yl)ethyl]pyrimidine-2,4-diamine]
- EC50: 0.033 µM

SMILES: CCOc1ccc2[nH]cc(CCNc3nccc(Nc4ccc5[nH]c(CO)cc5c4)n3)c2c1 [Example 72, [5-({2-[2-(5-ethoxy-1H-indol-3-yl)ethylamino]pyrimidin-4-yl}amino)-1H-indol-2-yl]methanol]
- EC50: < 0.1 µM

SMILES: COc1ccc2[nH]cc(CCNc3nccc(Nc4cccc5[nH]ccc45)n3)c2c1 [Example 21, N^4-(1H-indol-4-yl)-N^2-[2-(5-methoxy-1H-indol-3-yl)ethyl]pyrimidine-2,4-diamine]
- EC50: 0.059 µM

SMILES: COc1ccc2[nH]cc(CCNc3nccc(Nc4ccc5cc(C)[nH]c5c4)n3)c2c1 [Example 73, N^2-[2-(5-methoxy-1H-indol-3-yl)ethyl]-N^4-(2-methyl-1H-indol-6-yl)pyrimidine-2,4-diamine]
- EC50: < 0.1 µM

SMILES: COc1ccc2[nH]cc(CCNc3nc(C)cc(Nc4ccc5[nH]c(C)nc5c4)n3)c2c1 [Example 57, N^2-[2-(5-methoxy-1H-indol-3-yl)ethyl]-6-methyl-N^4-(2-methyl-1H-benzo[d]imidazol-5-yl)pyrimidine-2,4-diamine]
- EC50: 0.23 µM

SMILES: CCOc1ccc2[nH]cc(CCNc3nccc(Nc4cccc5[nH]c(C)cc45)n3)c2c1 [Example 78, N^2-[2-(5-ethoxy-1H-indol-3-yl)ethyl]-N^4-(2-methyl-1H-indol-4-yl)pyrimidine-2,4-diamine]
- EC50: < 0.1 µM

SMILES: COc1ccc2[nH]cc(CCNc3nc(Nc4ccc5[nH]c(C)cc5c4)cc(C(N)=O)n3)c2c1 [Example 28, 2-[2-(5-methoxy-1H-indol-3-yl)ethylamino]-6-(2-methyl-1H-indol-5-ylamino)pyrimidine-4-carboxamide]
- EC50: 0.058 µM

SMILES: COc1ccc2[nH]cc(CCNc3ncc(C)c(Nc4ccc5[nH]c(C)cc5c4)n3)c2c1 [Example 29, N^2-[2-(5-methoxy-1H-indol-3-yl)ethyl]-5-methyl-N^4-(2-methyl-1H-indol-5-yl)pyrimidine-2,4-diamine]
- EC50: 0.057 µM

SMILES: CCOc1ccc2[nH]cc(CCNc3nc(Nc4ccc5[nH]c(C)cc5c4)cc(C(N)=O)n3)c2c1 [Example 85, 2-[2-(5-ethoxy-1H-indol-3-yl)ethylamino]-6-[(2-methyl-1H-indol-5-yl)amino]pyrimidine-4-carboxamide]
- EC50: < 0.1 µM

SMILES: COc1ccc2[nH]cc(CCNc3nccc(Nc4cccc5c4cc(C)n5C)n3)c2c1 [Example 81, N^4-(1,2-dimethylindol-4-yl)-N^2-[2-(5-methoxy-1H-indol-3-yl)ethyl]pyrimidine-2,4-diamine]
- EC50: < 0.1 µM

Source: patent US9006241B2, “Pyrimidine derivatives” (Noviga Research AB, priority 2011, dated 2015)
